“And” between values parts separate entries of the source, which are not always exact repeats. Identical values can stand only once. Non-standard residues stand in square brackets, D forms with d. Residues, ends and D or L forms follow the SMILES beside them.
Key:
[1] = parameters: species or system male Swiss Webster mice; details: mouse, in vivo
Method: Six week-old male Swiss Webster mice weighing approximately 30 g were obtained from Taconic Farms (Germantown, N.Y., USA). The animals were housed three per cage in polycarbonate cages fitted with stainless steel wire lids and air filters, and supported on ventilated racks (Thoren Caging Systems, Hazelton, Pa., USA) in the Albany Medical College Animal Resources Facility. The mice were maintained at a constant temperature (24° C.) with lights on from 07:00 to 19:00 h, and allowed food and water ad libitum until used for uptake studies. Mouse [[…]]OB3 was prepared commercially as a C-terminal amide by Bachem (Torrance, Calif., USA). For oral delivery, mouse [[…]]-OB3 was dissolved in either phosphate buffered saline (PBS, pH 7.2) or 0.3% […] Therapeutics, San Diego, Calif. USA) reconstituted in water, at a concentration of 1 mg/200 ul and administered by gavage. Is has been previously shown that this concentration to be optimum for regulating energy expenditure, glycemic control, and insulin sensitivity in two genetically obese mouse models. (See Grasso P. et al., Regulatory Pept. 101:123-9 (2001); Grasso P. et al., Regulatory Pept. 85:93-100 (1999); Grasso P. et al., Endocrinology 138:1413-8 (1997); Grasso P. et al., Diabetes 48:2204-9 (1999); and Rozhayskaya-Arena M. et al., Endocrinology 141:2501-7 (2000)). At time zero (0), 200 μl mouse [[…]]-OB3 in PBS or 0.3% […]® was delivered by gavage to each mouse. Following peptide administration, the mice were transferred to separate cages for the designated time period. Five, 10, 20, 40, 60, or 120 min after peptide delivery, the mice (six per time point) were anesthetized with isoflurane (5%) and exsanguinated by cardiac puncture. Euthanasia was confirmed by cervical dislocation. The blood was collected in sterile nonheparinized plastic centrifuge tubes and allowed to stand at room temperature for 1 h. The clotted blood was rimmed from the walls of the tubes with sterile wooden applicator sticks. Individual serum samples were prepared by centrifugation for 30 min at 2600×g in an Eppendorf […], A-4-38 rotor (Eppendorf North America, Westbury, N.Y., USA), The serum samples in each experimental group (n=6) were pooled and stored frozen until assayed for mouse [[…]]-OB3 content by competitive ELISA. Mouse [[…]]-OB3 content of the pooled serum samples was measured by a competitive ELISA developed and validated in our laboratory as previously described. (See Novakovic Z. et al., Regulatory Pept. 154:107-11 (2009)). Serum concentrations of mouse [[…]]OB3 vs. time following oral delivery were plotted using the graphics program SigmaPlot 8.0 (SPSS Science, Chicago, Ill., USA). The area under the curve (AUC) was calculated with a function of this program. The lowest AUC value obtained was arbitrarily set at 1.0. Relative bioavailabilty was determined by comparing all other AUC values to 1.0. The period of time required for the serum concentration of mouse [[…]]-OB3 to be reduced to exactly one-half of the maximum concentration achieved following oral administration of mouse [[…]]-OB3 in the absence or presence of […]® was calculated using the following equation: […] Clearance of mouse [[…]]-OB3 from the plasma following oral delivery was calculated from the AUC using the following equation: CL=Dose/AUC Since the half-life of a drug is inversely related to its clearance from the plasma and directly proportional to its volume of distribution, the apparent volume of distribution of mouse [[…]]-OB3 following oral delivery was calculated from its half-life and clearance using the following equation: […] The relative oral bioavailability of mouse [[…]]-OB3 delivered in […]® was compared to the relative bioavailabilities of intranasal and three commonly used injection methods of delivery recently reported. (See Oliveira Jr. V X. et al., J. Pept. Sci. 14:617-25 (2008)). […]

[2] = system: male C57BLK/6-m db/db mice; assay: Intranasal delivery in db/db mice: body weight, food and water intake, serum glucose, insulin, osteocalcin; assay type: in vivo, mouse
Method: Each bar and vertical line represents mean±SEM serum glucose level (n=6).
FIG. 17. Effects of intranasal administration of mouse [D-Leu-4]-OB3 (1 mg/day, 14 days) on body weight gain in C57BLk/6-m db/db mice. […] Each point represents the mean±standard error of mean change in body weight for a group of six mice.
In the present study, the effects of intranasal administration of mouse [D-Leu-4]-OB3 in Intravail® on energy balance, serum osteocalcin, and serum insulin levels in genetically obese male C57BLK/6-m db/db mice allowed food and water ad libitum were examined. […] (See FIGS. 12 and 13). […] (See FIGS. 14 and 15).
In the present study, the effects of intranasal delivery of mouse [D-Leu-4]-OB3 in Intravail® on energy balance, glucose regulation, insulin secretion, and serum levels of osteocalcin, a specific and sensitive marker of bone formation were examined Genetically obese C57BLK/6-m db/db mice were allowed food and water ad libitum, and given either Intravail® alone or mouse [D-Leu-4]-OB3 in Intravail® for 14 days. […] Serum insulin levels in db/db mice given mouse [D-Leu-4]-OB3 were approximately 3-fold lower than those in mice receiving Intravail® alone. Mouse [D-Leu-4]-OB3 elevated serum osteocalcin in db/db mice by 28.7% over Intravail® treated control mice. […] In addition, its effects on bone turnover may also be useful in the prevention and/or reversal of at least some of the bone loss which accompanies osteoporosis, anorexia nervosa, cancer, and other wasting diseases not associated with the obesity syndrome.

[3] = 1 mg/day, 14 days, intranasal in Intravail

SMILES: CC(C)C[C@@H](NC(=O)[C@H](CO)NC(=O)[C@H](CS)NC(=O)[C@@H](N)CO)C(=O)N1CCC[C@H]1C(=O)N[C@@H](CCC(N)=O)C(=O)N[C@H](C(N)=O)[C@@H](C)O [mouse [D-Leu-4]-OB3] (H-SCS[dL]PQT-NH2; N-terminus assumed)
- Relative oral bioavailability [1]: 52.2%
- bioavailability ([1]; Relative oral bioavailability): 47.3%
- Maximum uptake (Cmax) in Intravail relative to PBS ([1]; po, 1 mg): 3.6 fold
- Plasma CL in PBS compared with Intravail ([1]; po, 1 mg): four times faster
- Tmax ([1]; po, 1 mg): 50 min
- t1/2 (serum half-life) ([1]; po, 1 mg): 20.15 min
- tmax ([1]; po, 1 mg): 50 min
- Body weight (% of initial) [2, 3]: 104.9 ± 1.4 % of initial
- Final body weight [2, 3]: 37.0 ± 1.7 g
- Food intake [2, 3]: 6.1 g/mouse/day and 6.1 ± 0.3 g/mouse/day
- Serum insulin [2, 3]: 0.95 ng/mL and 0.95 ± 0.03 ng/mL
- Serum osteocalcin [2, 3]: 470 ng/mL and 470.0 ± 20.0 ng/mL
- Water intake [2, 3]: 21.2 ml/mouse/day and 21.2 ± 1.8 ml/mouse/day
- reduction of serum glucose ([2]; 14 days intranasal in Intravail): 61.9%
- body weight increase over initial body weight (heavier) ([2]; after 14 days intranasal in Intravail): 4.9%
- Initial serum glucose ([2]; day 0): 472 ± 7.3 mg/dL
- Initial body weight ([2]; day 0, 1 mg/day, 14 days, intranasal in Intravail): 35.0 ± 1.1 g
- Final serum glucose ([2]; day 14, 1 mg/day intranasal in Intravail): 209 ± 89.4 mg/dL
